This is an account of results in US20180238860A1, “INDIVIDUAL METHOD PREDICTIVE OF THE DNA-BREAKING GENOTOXIC EFFECTS OF CHEMICAL OR BIOCHEMICAL AGENTS” (priority 2015, published 2018).

Series [1] relates to HMEC cells. Briefly: pH2AX foci 24 h after contacting, Table 4 lower part (HMEC endothelial cells). The class given is cell-based, human. The conditions noted are these: line cell blank (below Hasp), 24 hours after contacting. As for the experimental part:
(§1) In one embodiment, on receipt, the tissue sample (typically the biopsy) is established in the form of an amplifiable cell line without a viral or chemical transformation agent according to an ancillary procedure well known to culture laboratories, as underlined by the publication of Elkind et al. “The radiobiology of cultured mammalian cell”, Gordon and Breach (1967). Once the number of cells is sufficient (typically after 1 to 3 weeks), the first experiments are carried out using the process according to the invention. A cell sample is prepared: The cells are inoculated on glass coverslips in Petri dishes. A portion of these coverslips are contaminated with metals or pesticides or any other DNA-breaking chemical or biochemical agent at different concentrations. A further portion is not contaminated; it represents the spontaneous state. During contamination, the cells remain in the culture incubator at 37° C.
(§2) For the contaminated cells, characteristics are acquired corresponding to the state after an incubation time with the DNA-breaking chemical or biochemical agent. Said characteristics are represented by foci corresponding to the marker pH2AX. The cells on glass coverslips are then fixed, lysed and hybridized. The following procedure, known per se (Bodgi et al, “A single formula to describe radiation-induced protein relocalization: towards a mathematical definition of individual radiosensitivity”, J Theor Biol. 21 p 333:135-45.2013):
(§3) the cells are fixed in 3% paraformaldehyde and 2% sucrose for 15 minutes at ambient temperature and permeabilized in 20 mM HEPES buffer solution (4-(2-hydroxyethyl)-1-piperazine ethane sulfonic acid) at pH 7.4, 50 mM NaCl, 3 mM MgCl2, 300 mM sucrose, 0.5% Triton X-100 (a non-ionic surfactant having the formula t-Oct-C6H4-(OCH2CH2)×OH where x=9-10, CAS No. 9002-93-1, supplied for example by Sigma Aldrich) for 3 minutes. The glass coverslips are then washed in phosphate buffer saline (known as the acronym PBS) before immunological staining. The incubation took place for 40 min at 37° C. in PBS supplemented with 2% bovine serum albumin (known as the acronym BSA or fraction V, supplied for example by Sigma Aldrich) and was followed by a wash with PBS. Anti-pH2AX primary antibodies are used at a concentration of 1:800. The incubations with anti-mouse FITC or anti-rabbit TRITC secondary antibodies (1:100, supplied by Sigma Aldrich) were performed at 37° C. in 2% BSA for 20 minutes. Glass coverslips were treated with Vectashield™ containing DAPI (4,6-Diamidino-2-phenylindole) to label the nucleus. Staining with DAPI also makes it possible, indirectly, to determine the number of cells in phase G1 (nuclei with homogenous DAPI staining), in phase S (nuclei with numerous pH2AX foci), in phase G2 (nuclei with heterogeneous DAPI staining) and metaphases (visible chromosomes).
(§4) The results are acquired using these coverslips on an immunofluorescence microscope (Olympus model for example). The reading may be direct (typically by counting the foci on at least 50 cells in G0/G1 for each point) or using dedicated image analysis software, or on an automated microscope; preferably the software or automated microscope methods are calibrated with manual determinations.
(§5) The tables hereinafter summarize the results of numerous experiments which were carried out as described in the “Detailed description” section above.
(§6) In tables 3 and 4, “pH2AX” corresponds to the mean number of nuclear foci obtained with the marker pH2AX, 24 hours after contacting the cell sample with the chemical agent at the concentration C (NpH2AX(24 h, C)), and where “Micronuclei” corresponds to the mean number of micronuclei observed per 100 cells 24 hours after contacting the cell sample with the chemical agent at the concentration C(NMN(24 h, C)).

The subject of series [2] is HMEC cells. The experiment in a line: Micronuclei per 100 cells 24 h after contacting, Table 4 lower part (HMEC). The series is classed as cell-based, human. Particulars: line cell blank (below Hasp). The protocol:
as §1, §3
(§7) Counterstaining with DAPI (a DNA marker known to those skilled in the art) makes it possible to locate the nucleus to situate the cytoplasmic or nuclear location to quantify the micronuclei, which are complementary cell markers to the data on the foci.
as §5, §6

The subject of series [3] is pH2AX nuclear foci (DNA double-strand breaks). The experiment in a line: Single toxicity scale: reference concentration Cref and risk group prediction from NpH2AX(24 h). The class given is cell-based, human. The conditions noted are these: for Reference concentration Cref: NpH2AX(24 h) < 2; for Prediction based on algorithm: concentration above which “Group III” risk: NpH2AX(24 h) > 8. As for the experimental part:
(i) if the reference concentration has not previously been determined by the chemical or biochemical agent to be studied, a cell sample is prepared by dispersion and/or amplification of so-called reference cells (sensitivity group I); a plurality of concentrations within a broad concentration range of said breaking agent (said concentration range ranging for example from nM to mM) is applied for a predetermined period of time (preferably 24 hours) on this cell sample; pH2AX immunofluorescence is performed with DAPI counterstaining which also enables on the same cell sample the analysis of micronuclei for all the concentrations applied.
(ii) Either the mean number of nuclear foci observed with the marker pH2AX at the observation times t and at the concentration C (this mean number being referred to as NpH2AX(t, C)), or the mean number of micronuclei per 100 cells at the observation times t and at the concentration C (this mean number being referred to as NMN(t, C)), or the standard error a corresponding to the error committed on these respective measurements which must be performed on at least 50 nuclei once (Gaussian standard error) or 3 independent experiments of 50 nuclei (standard error of the mean).
(iii) The so-called reference concentration Cref is the concentration giving:
NpH2AX(24 h,Cref)+2σ=2 or indeed NMN(24 h,Cref)+2σ=2%;
If for the cell sample NpH2AX(24 h, Cref)<=2 or NMN(24 h, Cref)<=0.5%, preferably NMN(24 h, Cref)<=1% or even more preferentially NMN(24 h, Cref)<=2%, then the genotoxic risk is considered to be low or described as “Group I”
The experimental data presented in table 4 above were used to determine the reference concentration Cref particularly for Pb(NO3)2 (Cref<1 μM) and CdCl2 (Cref=10 μM).
Table 5 presents numerical examples of correspondence between the single toxicity scale according to the invention and the corresponding clinical signs.

A further series relates to humans exposed. The conditions noted are these: Hinkley USA; cited from earlier work.
The subject of another series is 1BR3 (control cells). The experiment in a line: pH2AX foci immunofluorescence 24 h after contacting, 1BR3 control fibroblasts. The series is classed as cell-based, human. The conditions noted are these: for pH2AX(24) + 2xSEM / pH2AX(24): 1BR3; for pH2AX(24) + 2xSEM: 24 hours; for pH2AX(24): 24 hours after contacting. The protocol:
as §1, §2, §3, §4
(§8) Commercial 1BR3 and 149 BR control fibroblasts were amplified according to the recommendations of the supplier (SIGMA-ALDRICH) until the number of cells sought was obtained. After obtaining a sufficient number of cells (generally after one to 3 weeks), the first experiments were conducted using the process according to the invention. The cells were inoculated on glass coverslips in Petri dishes.
(§9) The acquisition of the results was carried out using these coverslips on an immunofluorescence microscope (Olympus model). The reading was performed directly by counting the foci obtained with the marker pH2AX on at least 50 cells in G0/G1 for each point or using dedicated image analysis software (imageJ). […]

The subject of another series is 149BR (control cells). Briefly: pH2AX foci immunofluorescence 24 h after contacting, 149BR control fibroblasts. The class given is cell-based, human. The conditions noted are these: for pH2AX(24) + 2xSEM / pH2AX(24): 149BR; for pH2AX(24) + 2xSEM: 24 hours; for pH2AX(24): 24 hours after contacting. As for the experimental part: as §1, §2, §3, §4, §8, §9
The subject of series [4] is 04PSL cells. Briefly: pH2AX foci immunofluorescence 24 h after contacting, 04PSL patient skin cell line. Particulars: for pH2AX: 24 hours after contacting (Table 3); for pH2AX(24) + 2xSEM: 24 hours; for pH2AX(24 h): 24 hours after contacting (Table 1). The class given is cell-based, human. As for the experimental part:
as §3
A skin cell sample from a patient was sampled by biopsy via the “skin punch” method known to those skilled in the art. The cell sample was then placed in DMEM medium+20% sterile fetal calf serum. The cell sample was then transferred without delay to a specialized laboratory, so that the sample remained not more than 38 hours at ambient temperature.
On receipt, the cell sample from the biopsy was established in the form of an amplifiable 04PSL cell line according to a procedure well known to culture laboratories and those skilled in the art: using particularly the trypsin dispersion, the cells are once again diluted in replenished medium and so on until the number of cells sought is obtained. […] The 04PSL line cells were inoculated on glass coverslips in Petri dishes.
The acquisition of the results was carried out using these coverslips on an immunofluorescence microscope (Olympus model). The reading was performed directly by counting the foci obtained with the marker pH2AX on at least 50 cells in G0/G1 for each point or using dedicated image analysis software (imageJ).
In order to obtain results of sufficient statistical reliability to serve as a basis for diagnosis, 3 independent series of experiments were performed.
as §6

Series [5] deals with 04PSL cells. Briefly: Micronuclei per 100 cells (DAPI) 24 h after contacting, 04PSL. The class given is cell-based, human. As for the experimental part: as §1, §3, §7, §5, §6

Molecules are shown by their SMILES.

For the molecule `[Cl][Cd][Cl]` [CdCl2], the pH2AX in the series with HMEC cells [1] (10 μM) amounted to 1.9 foci; with HMEC cells [1] (30 μM), 3.7 foci; in the series on HMEC cells [1] (100 μM), 8.3 foci. For the same molecule, the Micronuclei worked out at 3.5 per 100 cells in the series on HMEC cells [2] (10 μM), 9 per 100 cells in the series with HMEC cells [2] (30 μM) and 12.25 per 100 cells with HMEC cells [2] (100 μM). Also, the “Reference concentration Cref” value in series [3] (determined from data of table 4) was 10 µM. Further, the “Prediction based on algorithm: concentration above which “Group III” risk” value in series [3] is reported as “predicted above 100 μM”.
For the molecule `[Na+].[Na+].[O]=[Cr](=[O])([O-])[O-]` [Chromium, Na2CrO4], in series [3], the “Reference concentration Cref” value is 0.003 µM and the “Prediction based on algorithm: concentration above which “Group III” risk” value is “predicted above 30 nM”. In the series on humans exposed, the “Cases of poisoning, concentration in tap water (estimated)” value is “concentration in tap water was estimated at 23 Nm”; the “Cases of poisoning, concentration in well water” value was 1.19 g/L; the “Cases of poisoning, concentration in well water, equivalent” value was 4.6 mM.
With `O=C(O)CNCP(=O)(O)O` [glyphosate], the “pH2AX(24) + 2xSEM” value in the series on 1BR3 (control cells) (glyphosate 3 μM) was 1.856 foci; in the series on 1BR3 (control cells) (glyphosate 10 μM), 1.856 foci; with 1BR3 (control cells) (glyphosate 30 μM), 2.204 foci; with 1BR3 (control cells) (glyphosate 100 μM) it was 2.32 foci; with 1BR3 (control cells) (glyphosate 300 μM), 2.668 foci; in the series on 149BR (control cells) (glyphosate 3 μM), 0.928 foci. The “pH2AX(24) + 2xSEM” value in the series on 149BR (control cells) (glyphosate 10 μM) is given as 1.16 foci; with 149BR (control cells) (glyphosate 30 μM) it was 1.74 foci; with 149BR (control cells) (glyphosate 100 μM), 2.088 foci; in the series with 149BR (control cells) (glyphosate 300 μM) it was 3.48 foci; with 04PSL cells [4] (glyphosate 3 μM), 1.972 foci; in the series on 04PSL cells [4] (glyphosate 10 μM), 2.088 foci. The entries for the “pH2AX(24) + 2xSEM” value with 04PSL cells [4] (glyphosate 30 μM), in the series with 04PSL cells [4] (glyphosate 100 μM) and in the series on 04PSL cells [4] (glyphosate 300 μM) were 4.756 foci, 6.96 foci and 9.744 foci, respectively. For the same molecule, the “pH2AX(24)” value with 1BR3 (control cells) (glyphosate 3 μM) amounted to 1.6 foci; with 1BR3 (control cells) (glyphosate 10 μM), 1.6 foci; in the series with 1BR3 (control cells) (glyphosate 30 μM), 1.9 foci; in the series with 1BR3 (control cells) (glyphosate 100 μM), 2 foci; with 1BR3 (control cells) (glyphosate 300 μM), 2.3 foci; with 149BR (control cells) (glyphosate 3 μM), 0.8 foci. Also, the “pH2AX(24)” value in the series with 149BR (control cells) (glyphosate 10 μM) was found to be 1 foci; in the series with 149BR (control cells) (glyphosate 30 μM) it was 1.5 foci; in the series with 149BR (control cells) (glyphosate 100 μM), 1.8 foci; with 149BR (control cells) (glyphosate 300 μM), 3 foci. In addition, the “reference concentration Cref defined by NpH2AX(24 h, Cref)+2σ=2” value with 1BR3 (control cells) (control cell line 1BR3) and in the series on 149BR (control cells) (control cell line 149BR) was 100 µM each time. Besides, the pH2AX with 04PSL cells [4] (3 μM) was determined as 1.7 foci; in the series on 04PSL cells [4] (10 μM), 1.9 foci; in the series with 04PSL cells [4] (30 μM) it was 4.8 foci; with 04PSL cells [4] (100 μM), 6.5 foci; in the series with 04PSL cells [4] (300 μM), 8.7 foci. Further, the “pH2AX(24 h)” value in the series on 04PSL cells [4] (glyphosate 3 μM) is reported as 1.7 foci; with 04PSL cells [4] (glyphosate 10 μM), 1.8 foci; in the series on 04PSL cells [4] (glyphosate 30 μM), 4.1 foci; with 04PSL cells [4] (glyphosate 100 μM) it was 6 foci; with 04PSL cells [4] (glyphosate 300 μM), 8.4 foci. Also, in the series with 04PSL cells [4] (glyphosate concentration of 100 μM, 24 h), the “number of pH2AX foci” value is listed as “approximately 7 foci”. Moreover, the Micronuclei in the series with 04PSL cells [5] (3 μM) is on record as 6 per 100 cells; in the series with 04PSL cells [5] (10 μM), 4 per 100 cells; with 04PSL cells [5] (30 μM), 10 per 100 cells; in the series with 04PSL cells [5] (150 μM) it was 12 per 100 cells; in the series with 04PSL cells [5] (300 μM) it was 14 per 100 cells.
